The values that follow come from article PMC9579956 (RSC Medicinal Chemistry, 2022).

Mycobacterium thermoresistible (Mtr) LpqY, sequence (G7CES0 29-471): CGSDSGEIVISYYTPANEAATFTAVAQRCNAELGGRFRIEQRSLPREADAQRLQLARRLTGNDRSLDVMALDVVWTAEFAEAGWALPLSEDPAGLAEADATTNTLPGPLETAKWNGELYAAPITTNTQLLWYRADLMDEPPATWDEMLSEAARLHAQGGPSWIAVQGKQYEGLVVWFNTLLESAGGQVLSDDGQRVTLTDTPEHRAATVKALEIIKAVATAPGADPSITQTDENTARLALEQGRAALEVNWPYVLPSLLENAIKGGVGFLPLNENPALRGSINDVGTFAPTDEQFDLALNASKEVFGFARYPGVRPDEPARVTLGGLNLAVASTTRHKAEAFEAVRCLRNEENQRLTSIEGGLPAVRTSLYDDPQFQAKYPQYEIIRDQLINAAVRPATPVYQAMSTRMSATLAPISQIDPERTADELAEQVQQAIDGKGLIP

The test has as its target Mycobacterium thermoresistible (Mtr) LpqY (Mycolicibacterium thermoresistibile, UniProt G7CES0). The class given is binding. Conditions: single dose MST screen against LpqY.
Take `Nc1nc2ccc(-c3cncc(Oc4ccc(F)cc4)c3)cc2[nH]1` [MMV687248]: the “Pathogen Box screen signal/noise ratio” value turned out to be 0.2. Next, `Cn1ncc2c(N3CCOCC3)nc(NCCc3c[nH]c4ccccc34)nc21` [MMV676382]: 0.7; `COc1ccc2nccc(NC(=O)C3CCN(CCc4ccc(Cl)cc4)CC3)c2n1` [MMV688844]: 0.7. With `CC(=O)N1CCN(c2ccc(Oc3ccc(Cl)cc3O)cc2)CC1` [MMV688330], the “Pathogen Box screen signal/noise ratio” value is on record as 1.8.

Regarding `O=C(N[C@H](Cc1ccccc1)C(=O)Nc1ccccc1N1CCOCC1)c1cccs1` [MMV688845], the “Pathogen Box screen signal/noise ratio” value stood at 1.6. Then `O=C(NCc1nnc2n1CCCCC2)c1ccc(-c2ccc(F)cc2)o1` [MMV688796], with 0.278; and `CC1=NN(c2nc3ccccc3s2)C(=O)C1Cc1cccc2ccccc12` (stereo not shown) [MMV676558], with 3.8. Next, `CC1COC(Cn2cncn2)(c2ccc(Oc3ccc(Cl)cc3)cc2Cl)O1` (stereo not shown) [MMV688943]: 0.75; `Cc1cc(Nc2ccncc2)n2nc(C)c(-c3ccccc3Cl)c2n1` [MMV016136]: 1.7; `O=C(Nc1cccc(-c2ccc(NCCCN3CCCC3)nc2)c1)c1ccccc1` [MMV023953]: 2.4.

Consider `FC(F)(F)c1cnc(Sc2nnc(-c3ccncc3)o2)c(Cl)c1` [MMV011765], for which the “Pathogen Box screen signal/noise ratio” value worked out at 1.6. Then `COc1cc(-c2cc(-c3ccc(S(C)(=O)=O)cc3)cnc2N)ccc1O` [MMV010576], with 3.1; and `Cc1cc(C(=O)Nc2ccc(-c3ccccc3)cc2)no1` [MMV020152], with 0.742; and `COc1ccc(-c2nc(-c3cccc(NC(=O)Cc4ccc(F)cc4)c3)no2)cc1OC` [MMV676571], with 3.5. Then `O=C(Nc1nc(-c2ccccn2)cs1)C1CC1c1ccccc1F` (stereo not shown) [MMV1028806], with 0.225. In the case of `Cc1nc(-c2ccccn2)nc(N2CCC(Cc3ccccc3)C2)c1Cl` (stereo not shown) [MMV659004], the “Pathogen Box screen signal/noise ratio” value is listed as 0.2.

On to `COc1cc2ncnc(NC3CCN(Cc4ccccc4)CC3)c2cc1OC` [MMV006741], for which the “Pathogen Box screen signal/noise ratio” value is recorded as 4.3. Next, `CC(=O)OC[C@H]1O[C@@H]([S-])[C@H](OC(C)=O)[C@@H](OC(C)=O)[C@@H]1OC(C)=O.CC[PH+](CC)CC.[Au]` [MMV688978]: 0.85; `COc1ccc(Oc2ccc([C@@H](C)N(C)c3ncc4c(N)nc(N)nc4n3)cc2)cc1` [MMV690102]: 2.1; `Nc1ncnc2c1c(-c1cnc3ccccc3c1)nn2CC1CCNCC1` [MMV688411]: 2.1. Then `COc1cc(C(F)(F)F)nc2ccc(C)c(N)c12` [MMV047015], with 2.0; and `CS(=O)(=O)N1CCC(CCn2nc(Cc3cccc4ccccc34)c3c(N)ncnc32)CC1` [MMV688470], with 0.75; and `CNC(=O)C1Cc2ccccc2N1C(=O)Cc1ccc(F)cc1` (stereo not shown) [MMV188296], with 1.9.

On to `Cc1cc(C)cc(COc2ccc3c(C)c(CCC(=O)O)c(=O)oc3c2C)c1` [MMV676476], for which the “Pathogen Box screen signal/noise ratio” value is 2.7. Next, `CCCCCCCCCCCCCCCCOP(=O)([O-])OCC[N+](C)(C)C` [MMV688990]: 0.7; `COc1cncc(-c2cncc(N3CCN(c4ccncc4)CC3)n2)c1` [MMV085071]: 1.2; `O=C(Nc1nnc(-c2ccc(Cl)s2)o1)c1ccc(Cl)s1` [MMV676501]: 0.556. Take `Clc1cccc(C(c2ccc(CN3CCNCC3)cc2)n2ccnc2)c1` (stereo not shown) [MMV663250]: the “Pathogen Box screen signal/noise ratio” value was found to be 0.278. Then `O=C(NC1CCCCC1)N1CCN(Cc2ccc3c(c2)OCO3)CC1` [MMV676444], with 1.3; and `COc1ccc(C2=NN(C3CCCCCC3)C(=O)C2(C)C)cc1OCCCCOc1ccc(-c2nn[nH]n2)cc1` [MMV690028], with 2.5; and `CC(C)C(NC(=O)Cc1cccc2ccccc12)C(=O)Nc1cccc(C#N)c1` (stereo not shown) [MMV020591], with 0.25. Take `CCC(C)NC(=O)c1ccc(NC(=O)C2(c3ccccc3)CCCC2)cc1` (stereo not shown) [MMV146306]: the “Pathogen Box screen signal/noise ratio” value is reported as -0.653. Then `CCN(CC)S(=O)(=O)c1ccc(Cl)c(C(=O)Nc2ccc3nc(C)sc3c2)c1` [MMV019721], with 1.3; and `COc1ccc(CN2CCOc3ccc(C(C)(O)CN(C)C)cc3C2)cc1C` (stereo not shown) [MMV008439], with 0.222. For `CN1CCN(S(=O)(=O)c2ccc(-c3ccc4c(Nc5ncc(Cl)cn5)ccnc4c3)cc2)CC1` [MMV688283], the “Pathogen Box screen signal/noise ratio” value came to 1.8. Then `O=C(NC1CCN(c2ccnc3ccccc23)C1)c1cccc(C(F)(F)F)c1` (stereo not shown) [MMV023388], with -0.0357. Next, `c1cncc(NCc2ccc(-c3cc4ccncc4cc3OC3CCNCC3)s2)c1` [MMV023969]: 1.3. Then `CCOc1ccc2cc(-c3nn(C(C)(C)C)c(N)c3C(N)=O)cnc2c1` [MMV688853], with 3.8; and `CS(=O)(=O)N1CCC(Cn2nc(Cc3cccc4ccccc34)c3c(N)ncnc32)CC1` [MMV676050], with 0.8; and `CCN(CC)CCCCCCNc1cc(OC)cc2c(C)ccnc12` [MMV000063], with 2.2.

Regarding `COc1cc(Br)cc2cc(C(=O)Nc3cccc(C(F)(F)F)c3)c(=O)oc12` [MMV688891], the “Pathogen Box screen signal/noise ratio” value is 0.646. Next, `C[C@H](C(N)=O)N1CCCC[C@H]1c1ccc(OCc2cccc(F)c2)cc1` [MMV676269]: 0.212.

Regarding `Oc1c(I)cc(I)c2cccnc12` [MMV002817], the “Pathogen Box screen signal/noise ratio” value amounted to 0.152. In the case of `Cc1nnc(NC(=O)c2cn(-c3ccccc3)nc2-c2ccccc2C)o1` [MMV020320], the “Pathogen Box screen signal/noise ratio” value worked out at 0.6. As to `CNC1C(OC2C(OC3C(O)C(O)C(NC(=N)N)C(O)C3NC(=N)N)OC(C)C2(O)C=O)OC(CO)C(O)C1O` (stereo not shown) [MMV688994], the “Pathogen Box screen signal/noise ratio” value came to 0.56. Then `N#Cc1nc(-c2ccccc2F)oc1NCCc1ccccc1` [MMV676384], with 1.0.

Take `CCN(CC)C(=O)N1CCN(C)CC1` [MMV002816]: the “Pathogen Box screen signal/noise ratio” value came out at 1.5. Consider `CC(C)n1nc(-c2cc3c(Cl)cccc3[nH]2)c2c(N)ncnc21` [MMV688417], for which the “Pathogen Box screen signal/noise ratio” value came to 1.3. For `CCCCN(CCCC)c1c(C#N)cc(S(=O)(=O)Nc2ccccc2)cc1C#N` [MMV688467], the “Pathogen Box screen signal/noise ratio” value is listed as 0.7. For `NS(=O)(=O)c1cncc(-c2ccc3nccc(-c4cn[nH]c4)c3n2)c1` [MMV024101], the “Pathogen Box screen signal/noise ratio” value was found to be 0.429. Then `Cc1cccc(C(=O)Nc2ccnc(N(C)C3CCN(CC(C)C)CC3)c2)c1` [MMV024829], with -0.0167. Then `CC(C(=O)Nc1ccc2oc(-c3ccncc3)nc2c1)c1ccccc1` (stereo not shown) [MMV688471], with 1.6; and `COc1ccc(C2=NCCN2)cc1-c1cn(-c2cccc(C3=NCCN3)c2)nn1` [MMV688547], with 0.9. Then `CC1CC1C(=O)NC1CCN(CC2(c3ccccc3)CCCCC2)CC1` (stereo not shown) [MMV020120], with 1.1; and `Clc1ccc(CN2CCN(C3=NCCN3)CC2)cc1Cl` [MMV689060], with 0.464; and `COc1ccc(Cn2cnc3c(-c4ccco4)nc(Cl)nc32)cc1` [MMV687170], with 1.0. For the compound `O=C(NC1CC1)c1ccc(N2CCOc3ccc(Cl)cc32)s1` [MMV020537], the “Pathogen Box screen signal/noise ratio” value is listed as 1.9.

For `O=C(C1CCN(c2nnnn2-c2ccccc2)CC1)N1CCc2ccccc2C1` [MMV009135], the “Pathogen Box screen signal/noise ratio” value was found to be 1.2. For `CCn1ncc2c(NC3CCOCC3)c(CNC(=O)c3ccnn3C)c(C)nc21` [MMV026356], the “Pathogen Box screen signal/noise ratio” value was 0.6. Then `N#CCN(CCCCN1CCN(c2ccc(F)cc2)CC1)C(=O)OCc1ccccc1` [MMV675997], with 0.322; and `O=C([C@@H](c1ccc(Cl)cc1)c1cccnc1)N1CCN(c2ccc(C(F)(F)F)cc2)CC1` [MMV689244], with 1.8; and `O=C(COc1cccc(F)c1)Nc1nc(-c2ccccn2)cs1` [MMV676409], with 0.449. Next, `O=C(Nc1ccnc(-c2cccnc2)n1)c1cc(C(F)(F)F)cc(C(F)(F)F)c1` [MMV019838]: 2.8; `CC(C)=CCC/C(C)=C\CNCCNC1C2CC3CC(C2)CC1C3` (stereo not shown) [MMV687273]: 1.3; `CC(C)(C)C(O)C(Oc1ccc(-c2ccccc2)cc1)n1cncn1` (stereo not shown) [MMV688942]: 0.451. Next, `Clc1ccc(CCNc2cc(-c3ccccc3)nc3ncnn23)cc1` [MMV688889]: 3.0; `CCc1nc2ccc(C(=O)NCc3ccc4c(c3)OCO4)cn2c1N(C)Cc1cccs1` [MMV407539]: 0.241. In the case of `Nc1nc(N)c2c3c(sc2n1)CN(Cc1ccccc1)CC3` [MMV688345], the “Pathogen Box screen signal/noise ratio” value was found to be 2.8.

In the case of `Cc1ccc2c(c1C)NC(=O)C21NN=C(c2ccccc2)S1` (stereo not shown) [MMV019189], the “Pathogen Box screen signal/noise ratio” value was 1.4. Next, `c1ccc(C[C@@H]2CN(c3nccc(Oc4ccc(-n5ccnc5)cc4)n3)CCN2)cc1` [MMV687749]: 0.0357; `CCCCc1ccc(C(=O)Nc2nccc3ccccc23)nc1` [MMV687254]: 0.0729. With `Cc1nc2ccccn2c1C(=O)NCc1ccc(Cl)cc1` [MMV012074], the “Pathogen Box screen signal/noise ratio” value was 1.0.

In the case of `CCCCOC(=O)Nc1cc2nc(C3CCCCC3)[nH]c2cc1N1CCCC1` [MMV687730], the “Pathogen Box screen signal/noise ratio” value came out at 1.3.
